# Results taken from BindingDB's records for doi:10.1128/aac.00737-07 (Duke University Medical Center, 2008).
# Legend:
# [1] = Inhibition of HIV1 (isolate YU2) envelope glycoprotein 120-mediated membrane fusion between virus-transfected african green monkey COS cells and human TZM-bl cells by luciferase-based cell-cell fusion assay in presence of IC9564
# [2] = Inhibition of HIV1 (isolate YU2) envelope glycoprotein 120-mediated membrane fusion between virus-transfected african green monkey COS cells and human TZM-bl cells by luciferase-based cell-cell fusion assay in absence of IC9564
compound,measurement,setting,value
"COc1ccnc2[nH]cc(C(=O)C(=O)N3CCN(C(=O)c4ccccc4)C[C@H]3C)c12 [(R)-1-(4-benzoyl-2-methylpiperazin-1-yl)-2-(4-methoxy-1H-pyrrolo[2,3-b]pyridin-3-yl)ethane-1,2-dione]",IC50,[1],34.4 nM
same,IC50,[2],137 nM
